Values after ≈ are worked out from the molar mass of the structure shown.
How the values were obtained:
[1] = test system: Listeria monocytogenes; assay: Anti-infective activity against Listeria monocytogenes NCTC 7973 assessed as reduction in bacterial growth by microdilution method; format: functional
[2] = test system: Pseudomonas aeruginosa; assay: Anti-infective activity against Pseudomonas aeruginosa PAO1 assessed as reduction in bacterial growth by microdilution method; format: functional
[3] = test system: Pseudomonas aeruginosa; assay: Anti-infective activity against Pseudomonas aeruginosa ATCC 27853 assessed as reduction in bacterial growth by microdilution method; format: functional
[4] = test system: Escherichia coli; assay: Anti-infective activity against resistant Escherichia coli assessed as reduction in bacterial growth by microdilution method; format: functional
[5] = test system: Staphylococcus aureus; assay: Anti-infective activity against Staphylococcus aureus ATCC 6538 assessed as reduction in bacterial growth by microdilution method; format: functional
[6] = test system: Escherichia coli; assay: Anti-infective activity against Escherichia coli ATCC 35210 assessed as reduction in bacterial growth by microdilution method; format: functional
[7] = test system: Staphylococcus aureus; assay: Anti-infective activity against methicillin resistance Staphylococcus aureus assessed as reduction in bacterial growth by microdilution method; format: functional
[8] = test system: Salmonella typhimurium; assay: Anti-infective activity against Salmonella typhimurium ATCC 13311 assessed as reduction in bacterial growth by microdilution method; format: functional, Salmonella enterica subsp. enterica serovar Typhimurium; conditions: Salmonella enterica

Row | SMILES | MBC [1] [µg/mL] | MIC [1] [µg/mL] | MBC [2] [µg/mL] | MIC [2] [µg/mL] | MBC [3] [µg/mL] | MIC [3] [µg/mL] | MBC [4] [µg/mL] | MIC [4] [µg/mL] | MBC [5] [µg/mL] | MIC [5] [µg/mL] | MBC [6] [µg/mL] | MIC [6] [µg/mL] | MBC [7] [µg/mL] | MIC [7] [µg/mL] | MBC [8] [µg/mL] | MIC [8] [µg/mL]
1 | O=C1CSC(c2ccc([N+](=O)[O-])cc2)N1c1nc2ccc(OC(F)(F)F)cc2s1 (racemic) | 500 (≈ 1130 µM) | 250 (≈ 566 µM) | 250 (≈ 566 µM) | 120 (≈ 272 µM) | 500 (≈ 1130 µM) | 250 (≈ 566 µM) | 500 (≈ 1130 µM) | 250 (≈ 566 µM) | 500 (≈ 1130 µM) | 250 (≈ 566 µM) | 250 (≈ 566 µM) | 120 (≈ 272 µM) | 1000 (≈ 2270 µM) | 500 (≈ 1130 µM) | 250 (≈ 566 µM) | 120 (≈ 272 µM)
2 | O=C1CSC(c2cccc(Cl)c2Cl)N1c1nc2ccc(OC(F)(F)F)cc2s1 (racemic) | 250 (≈ 537 µM) | 100 (≈ 215 µM) | 120 (≈ 258 µM) | 120 (≈ 258 µM) | 500 (≈ 1070 µM) | 250 (≈ 537 µM) | 250 (≈ 537 µM) | 120 (≈ 258 µM) | 250 (≈ 537 µM) | 100 (≈ 215 µM) | 250 (≈ 537 µM) | 150 (≈ 322 µM) | 1000 (≈ 2150 µM) | 500 (≈ 1070 µM) | 250 (≈ 537 µM) | 150 (≈ 322 µM)
3 | O=C1CSC(c2c(F)cccc2F)N1c1nc2ccc(OC(F)(F)F)cc2s1 (racemic) | > 1000 | > 1000 | 500 (≈ 1160 µM) | 300 (≈ 694 µM) | 500 (≈ 1160 µM) | 250 (≈ 578 µM) | 500 (≈ 1160 µM) | 250 (≈ 578 µM) | > 1000 | > 1000 | 250 (≈ 578 µM) | 120 (≈ 278 µM) | 1000 (≈ 2310 µM) | 250 (≈ 578 µM) | 250 (≈ 578 µM) | 120 (≈ 278 µM)
4 | O=C1CSC(c2ccc(O)cc2)N1c1nc2ccc(OC(F)(F)F)cc2s1 (racemic) | 750 (≈ 1820 µM) | 500 (≈ 1210 µM) | 500 (≈ 1210 µM) | 300 (≈ 727 µM) | 250 (≈ 606 µM) | 120 (≈ 291 µM) | 500 (≈ 1210 µM) | 250 (≈ 606 µM) | 750 (≈ 1820 µM) | 500 (≈ 1210 µM) | 250 (≈ 606 µM) | 150 (≈ 364 µM) | 500 (≈ 1210 µM) | 250 (≈ 606 µM) | 250 (≈ 606 µM) | 150 (≈ 364 µM)
5 | O=C1CSC(c2ccc(Cl)cc2Cl)N1c1nc2ccc(OC(F)(F)F)cc2s1 (racemic) | 500 (≈ 1070 µM) | 150 (≈ 322 µM) | 1000 (≈ 2150 µM) | 250 (≈ 537 µM) | 500 (≈ 1070 µM) | 250 (≈ 537 µM) | 500 (≈ 1070 µM) | 250 (≈ 537 µM) | 500 (≈ 1070 µM) | 150 (≈ 322 µM) | 250 (≈ 537 µM) | 120 (≈ 258 µM) | 1000 (≈ 2150 µM) | 500 (≈ 1070 µM) | 250 (≈ 537 µM) | 120 (≈ 258 µM)
6 | O=C1CSC(c2c(Cl)cccc2Cl)N1c1nc2ccc(OC(F)(F)F)cc2s1 (racemic) | 500 (≈ 1070 µM) | 250 (≈ 537 µM) | 250 (≈ 537 µM) | 120 (≈ 258 µM) | 500 (≈ 1070 µM) | 250 (≈ 537 µM) | 500 (≈ 1070 µM) | 250 (≈ 537 µM) | 500 (≈ 1070 µM) | 250 (≈ 537 µM) | 250 (≈ 537 µM) | 120 (≈ 258 µM) | 500 (≈ 1070 µM) | 250 (≈ 537 µM) | 250 (≈ 537 µM) | 120 (≈ 258 µM)
7 | O=C1CSC(c2ccc(F)cc2)N1c1nc2ccc(OC(F)(F)F)cc2s1 (racemic) | 500 (≈ 1210 µM) | 250 (≈ 603 µM) | 500 (≈ 1210 µM) | 250 (≈ 603 µM) | 500 (≈ 1210 µM) | 250 (≈ 603 µM) | 500 (≈ 1210 µM) | 250 (≈ 603 µM) | 500 (≈ 1210 µM) | 250 (≈ 603 µM) | 250 (≈ 603 µM) | 150 (≈ 362 µM) | 500 (≈ 1210 µM) | 250 (≈ 603 µM) | 250 (≈ 603 µM) | 150 (≈ 362 µM)
8 | O=C1CSC(c2ccc(Cl)cc2)N1c1nc2ccc(OC(F)(F)F)cc2s1 (racemic) | 500 (≈ 1160 µM) | 250 (≈ 580 µM) | 250 (≈ 580 µM) | 200 (≈ 464 µM) | 500 (≈ 1160 µM) | 250 (≈ 580 µM) | 250 (≈ 580 µM) | 120 (≈ 279 µM) | 500 (≈ 1160 µM) | 250 (≈ 580 µM) | 250 (≈ 580 µM) | 120 (≈ 279 µM) | 750 (≈ 1740 µM) | 250 (≈ 580 µM) | 250 (≈ 580 µM) | 120 (≈ 279 µM)
9 | COc1ccc(C2SCC(=O)N2c2nc3ccc(OC(F)(F)F)cc3s2)cc1 (racemic) | 500 (≈ 1170 µM) | 250 (≈ 586 µM) | 250 (≈ 586 µM) | 120 (≈ 281 µM) | 500 (≈ 1170 µM) | 250 (≈ 586 µM) | 500 (≈ 1170 µM) | 250 (≈ 586 µM) | 500 (≈ 1170 µM) | 250 (≈ 586 µM) | 500 (≈ 1170 µM) | 250 (≈ 586 µM) | 1000 (≈ 2340 µM) | 500 (≈ 1170 µM) | 500 (≈ 1170 µM) | 250 (≈ 586 µM)
10 | O=C1CSC(c2c(F)cccc2Cl)N1c1nc2ccc(OC(F)(F)F)cc2s1 (racemic) | 500 (≈ 1110 µM) | 250 (≈ 557 µM) | 250 (≈ 557 µM) | 120 (≈ 267 µM) | 1000 (≈ 2230 µM) | 500 (≈ 1110 µM) | 500 (≈ 1110 µM) | 250 (≈ 557 µM) | 500 (≈ 1110 µM) | 250 (≈ 557 µM) | 500 (≈ 1110 µM) | 250 (≈ 557 µM) | 1000 (≈ 2230 µM) | 500 (≈ 1110 µM) | 500 (≈ 1110 µM) | 250 (≈ 557 µM)
11 | CC1(C)S[C@@H]2[C@H](NC(=O)[C@H](N)c3ccccc3)C(=O)N2[C@H]1C(=O)O [AMPICILLIN] | 300 (≈ 859 µM) | 150 (≈ 429 µM) | – | 200 (≈ 572 µM) | 150 (≈ 429 µM) | 100 (≈ 286 µM) | – | 200 (≈ 572 µM) | 300 (≈ 859 µM) | 150 (≈ 429 µM) | 200 (≈ 572 µM) | 150 (≈ 429 µM) | – | – | 200 (≈ 572 µM) | 150 (≈ 429 µM)
12 | CN[C@@H]1[C@H](O[C@H]2[C@H](O[C@H]3[C@H](O)[C@@H](O)[C@H](N=C(N)N)[C@@H](O)[C@@H]3N=C(N)N)O[C@@H](C)[C@]2(O)C=O)O[C@@H](CO)[C@H](O)[C@H]1O [STREPTOMYCIN] | 300 (≈ 516 µM) | 150 (≈ 258 µM) | 100 (≈ 172 µM) | 50 (≈ 86 µM) | 200 (≈ 344 µM) | 100 (≈ 172 µM) | 200 (≈ 344 µM) | 100 (≈ 172 µM) | 300 (≈ 516 µM) | 150 (≈ 258 µM) | 200 (≈ 344 µM) | 100 (≈ 172 µM) | – | 100 (≈ 172 µM) | 200 (≈ 344 µM) | 100 (≈ 172 µM)
